In ChEMBL document CHEMBL1201862, “PubChem BioAssay data set” (2004):
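Protocol summary: plate cells (96-well), add compound at 5 concentrations, incubate 48 h, interpolate endpoints linearly. GI50 is the concentration that inhibits growth by half.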 Active and inactive are the calls of the source. No stated cut-off is given here; in the data, active = GI50 up to about 1.1 µM and inactive = higher.

What was measured:
Assay in all cases: NCI-60 cell line screen, 48 h
DMS-273 = tested on: DMS-273
RXF 631 = tested on: RXF 631
DLD-1 = tested on: DLD-1
HOP-18 = tested on: HOP-18
DMS-114 = tested on: DMS-114
M19-MEL = tested on: M19-MEL
XF498 = tested on: XF498
SNB-78 = tested on: SNB-78
LXFL 529 = tested on: LXFL 529

Row | SMILES | GI50 (DMS-273) | GI50 (RXF 631) | GI50 (DLD-1) | GI50 (HOP-18) | GI50 (DMS-114) | GI50 (M19-MEL) | GI50 (XF498) | GI50 (SNB-78) | GI50 (LXFL 529)
1 | O=C(Nc1cc(Cl)c(Cl)cc1Cl)C(=O)C1C(=O)NC(=S)NC1=O | > 100 µM (inactive) | > 100 µM (inactive) | > 100 µM (inactive) | > 100 µM (inactive) | > 100 µM (inactive) | > 100 µM (inactive) | > 100 µM (inactive) | > 100 µM (inactive) | > 100 µM (inactive)
2 | CCNc1nc2c(=O)n(C)c(=O)n(C)c2s1 |  |  | > 100 µM (inactive) | > 100 µM (inactive) |  | > 100 µM (inactive) | > 100 µM (inactive) | > 100 µM (inactive) | > 100 µM (inactive)
3 | CSC(=S)NNC(=O)c1ccncc1 | 21.7 µM (inactive) | 30 µM (inactive) | 13.5 µM (inactive) | 25.2 µM (inactive) | 14.3 µM (inactive) | 19.1 µM (inactive) | 21.9 µM (inactive) | 28.2 µM (inactive) | 15.7 µM (inactive)
4 | [N-]=[N+]=N/C1=C/CCCCC(=O)C1 | > 100 µM (inactive) |  | > 100 µM (inactive) |  | > 100 µM (inactive) | > 100 µM (inactive) | > 100 µM (inactive) | > 100 µM (inactive) | > 100 µM (inactive)
5 | COc1cc2c(c(OC)c1OC)-c1ccc(SC)c(=O)cc1[C@@H](NCc1ccccc1[N+](=O)[O-])CC2 | 0.004 µM (active) | 0.01 µM (active) | 0.00762 µM (active) |  | 0.00796 µM (active) | 0.004 µM (active) | 0.0176 µM (active) | 0.00682 µM (active) | 0.0128 µM (active)
6 | COc1cccc(NC(=O)C(=O)C2C=CCS2(=O)=O)c1 (stereo unspecified) |  |  | > 100 µM (inactive) | > 100 µM (inactive) | > 100 µM (inactive) | > 100 µM (inactive) | > 100 µM (inactive) |  | > 100 µM (inactive)
7 | COc1cc(C(O)C(=O)c2nc3ccc([N+](=O)[O-])cc3nc2O)ccc1O (stereo unspecified) | 83.9 µM (inactive) |  | > 100 µM (inactive) |  | 66.8 µM (inactive) | > 100 µM (inactive) | > 100 µM (inactive) | > 100 µM (inactive) | 35.8 µM (inactive)
8 | Cc1ccc(C)c(NC(=O)/C(=N\NC(N)=S)C(C#N)c2ccccc2)c1 (stereo unspecified) | > 100 µM (inactive) |  | > 100 µM (inactive) | > 100 µM (inactive) | > 100 µM (inactive) | > 100 µM (inactive) | > 100 µM (inactive) |  | > 100 µM (inactive)
9 | COc1cccc(NC(=O)C(C)(C)C)c1C=O |  | 81.3 µM (inactive) | 51.9 µM (inactive) | 91 µM (inactive) | 34.6 µM (inactive) | 59.3 µM (inactive) | 7.38 µM (inactive) | 51.2 µM (inactive) | 33.7 µM (inactive)
10 | O=C1NC2(CCCCC2)C(=O)N1CCN(CCCl)CCCl [SPIROMUSTINE] | 71.6 µM (inactive) |  | 164 µM (inactive) | 236 µM (inactive) | 88.7 µM (inactive) | 228 µM (inactive) | 28.8 µM (inactive) | 148 µM (inactive) | 
11 | C#CCNC(=O)NCCCCC(NC(=O)OCc1ccccc1)C(=O)OCc1ccccc1 (stereo unspecified) | > 71.3 µM (inactive) | > 58.5 µM (inactive) | 49 µM (inactive) | > 100 µM (inactive) | 27.7 µM (inactive) | 38.7 µM (inactive) | 18.5 µM (inactive) | > 80.9 µM (inactive) | 40.3 µM (inactive)
12 | CC(=O)O[C@H]1C=CC23OC(=O)[C@]1(C)[C@H]2[C@H](C(=O)O)C12CC(=O)[C@@](CO)(CC[C@H]13)C2 | > 100 µM (inactive) | > 100 µM (inactive) | > 100 µM (inactive) | > 100 µM (inactive) |  | > 100 µM (inactive) | > 100 µM (inactive) | > 100 µM (inactive) | > 100 µM (inactive)
13 | O=C(CC1(O)C(=O)Nc2ccc([N+](=O)[O-])cc21)c1ccc(Br)cc1 (stereo unspecified) |  |  | 45.3 µM (inactive) | > 100 µM (inactive) | 32.1 µM (inactive) | 19.5 µM (inactive) | 32.3 µM (inactive) | 23.2 µM (inactive) | 47.1 µM (inactive)
14 | COC(=O)/C=C(C)/C=C/c1c(C)c(C(C)=O)c(C)n1C | > 100 µM (inactive) | > 100 µM (inactive) | > 100 µM (inactive) | > 100 µM (inactive) |  | > 100 µM (inactive) | > 100 µM (inactive) | > 100 µM (inactive) | 88.3 µM (inactive)
15 | CC1CCC2(OC1)OC1CC3C4CCC5CC(O)CCC5(C)C4CC(=O)OC3(C)C1C2C (stereo unspecified) | > 100 µM (inactive) |  | > 100 µM (inactive) | > 100 µM (inactive) | > 100 µM (inactive) | > 100 µM (inactive) |  | > 100 µM (inactive) | > 100 µM (inactive)
16 | CC1=CC(=O)N(c2c(C)cccc2Cl)C(C)N1 (stereo unspecified) | > 100 µM (inactive) | > 100 µM (inactive) | > 100 µM (inactive) | > 100 µM (inactive) | > 100 µM (inactive) | > 100 µM (inactive) |  | > 100 µM (inactive) | > 100 µM (inactive)
17 | COC(OC)C(C)CC(=O)N(C)C (stereo unspecified) | > 100 µM (inactive) |  | > 100 µM (inactive) |  | > 100 µM (inactive) | > 100 µM (inactive) | > 100 µM (inactive) | > 100 µM (inactive) | > 100 µM (inactive)
18 | CCOC1c2cc(OC)c(OC)cc2-c2ccc3ccccc3c2N1C (stereo unspecified) | 6.46 µM (inactive) | 22.9 µM (inactive) | 25.5 µM (inactive) | 42.4 µM (inactive) | 9.35 µM (inactive) | 11.2 µM (inactive) | 14.8 µM (inactive) | 33.6 µM (inactive) | 5.96 µM (inactive)
19 | O=[N+]([O-])c1cc(C(F)(F)F)cc([N+](=O)[O-])c1CCl | 1.23 µM (inactive) | 2.8 µM (inactive) | 1.83 µM (inactive) | 1.93 µM (inactive) | 0.52 µM (active) | 1.57 µM (inactive) | 8.97 µM (inactive) | 4.69 µM (inactive) | 0.228 µM (active)
20 | O=C(c1ccccc1)C(c1ccccc1)C1(O)C(=O)Nc2ccc([N+](=O)[O-])cc21 (stereo unspecified) |  | > 100 µM (inactive) | > 100 µM (inactive) |  | 19.8 µM (inactive) | 26.9 µM (inactive) | > 100 µM (inactive) | > 100 µM (inactive) | 32.9 µM (inactive)
21 | O=C(/C=C/c1ccc(OCCCOc2ccc(/C=C/C(=O)c3ccc(Cl)cc3)cc2)cc1)c1ccc(Cl)cc1 | > 100 µM (inactive) |  | > 100 µM (inactive) | 5.42 µM (inactive) | > 100 µM (inactive) | > 100 µM (inactive) | > 100 µM (inactive) | > 100 µM (inactive) | > 100 µM (inactive)
